Reference: EP4741391A1, “NMT INHIBITOR, AND PREPARATION METHOD THEREFOR AND USE THEREOF” (Nanjing Synnocare Pharmaceutical Technology Co., Ltd., priority 2023, dated 2025)

Assays:
[1] = target: T1, NMT1 enzyme (Homo sapiens, UniProt P30419); assay: Inhibitory activity on NMT1 enzyme catalysis (fluorescence intensity, CPM probe); format: biochemical; conditions: 6 nM NMT1 enzyme, 1.25 µM myristoyl-CoA, 20 µM HSPP60 SRC peptide, 45 minutes at 25 °C
T1 sequence (P30419 1-496): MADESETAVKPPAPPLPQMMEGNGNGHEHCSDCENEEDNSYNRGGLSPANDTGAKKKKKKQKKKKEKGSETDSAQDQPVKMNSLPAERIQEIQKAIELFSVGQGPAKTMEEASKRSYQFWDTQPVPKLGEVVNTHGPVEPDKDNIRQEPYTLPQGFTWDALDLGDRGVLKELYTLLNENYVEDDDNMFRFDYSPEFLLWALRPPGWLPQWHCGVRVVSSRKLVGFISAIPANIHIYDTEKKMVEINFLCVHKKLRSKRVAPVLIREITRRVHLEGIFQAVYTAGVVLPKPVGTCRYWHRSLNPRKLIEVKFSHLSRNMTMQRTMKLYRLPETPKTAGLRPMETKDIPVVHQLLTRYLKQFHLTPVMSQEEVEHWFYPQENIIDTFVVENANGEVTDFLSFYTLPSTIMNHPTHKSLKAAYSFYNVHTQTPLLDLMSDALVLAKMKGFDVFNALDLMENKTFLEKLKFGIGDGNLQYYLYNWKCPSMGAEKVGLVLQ
Procedure: This study evaluated the ability of the compounds of the invention to inhibit NMT1 catalytic activity in vitro. The experiment used a FI (Fluorescence Intensity) analysis method, characterizing NMT1 inhibitors under conditions of 1.25 µM myristoyl-CoA (Lithium salt, Sigma, M4414). In this experiment, a synthesized peptide with the sequence H-Gly-Ser-Asn-Lys-Ser-Lys-Pro-Lys-NH2, HSPP60SRC (Nanjing Peptide Industry, NJP23953), was used as the reaction substrate. The final concentration of the NMT1 enzyme was 6 nM, the final concentration of CPM (Reactive thiol fluorescence probe, Invitrogen, D346) was 1 µM, the final concentration of HSPP60 SRC was 20 µM, and the final concentration of DMSO was 0.5%.
Compounds were dissolved in DMSO to obtain 10 mM stock solutions. Dose-response solutions were prepared with a top endpoint compound concentration of 3 mM, followed by three-fold serial dilutions in DMSO, totaling ten data points. Using an ECHO acoustic liquid handler (BECKMAN, ECHO 655 system), 0.05 µL of the diluted compound solutions was transferred to a 384-well assay plate (Corning, CLS4514). Then, 2.5 µL of the NMT1 enzyme working solution was added to the 384-well assay plate, followed by incubation at 25 °C for 10 minutes. Subsequently, 5 µL of the CPM and myristoyl-CoA working solution was added, the plate was centrifuged at 1000 rpm for 1 minute, and then 2.5 µL of the HSPP60 SRC working solution was added to initiate the reaction. The reaction was incubated at 25 °C for 45 minutes. The FI signal ([…]; ex: 405 nm) was detected using an HTS high-throughput screening multifunctional microplate reader (BMG, PHERA star FSX).
The inhibition rate of the compounds on NMT1 enzyme catalytic activity was calculated using the following formula: Inhibition Percentage (%) = 100 * (Mean of DMSO group - Mean of Compound group) / (Mean of DMSO group - Mean of Blank control group). The IC50 curve of the compounds was fitted using the software XLfit 5.5.0 according to the nonlinear regression equation. Table 1 provides the inhibitory activity of the compounds of the invention on NMT1 enzyme catalysis.

[2] = test system: MV-4-11 cells; assay: Anti-proliferative activity against MV-4-11 cells (three-day cell viability chemiluminescence); format: cell-based; conditions: Homo sapiens, MV4-11, 72 h, MV-4-11 human monocytic leukemia cells, three days of exposure
Procedure: This study utilized a cell proliferation assay to analyze the cytotoxicity of MV-4-11 human monocytic leukemia cells after three days of exposure to NMT1 inhibitors. The MV-4-11 cell line was purchased from Nanjing Cobuilder Biotechnology Co., Ltd., and cultured in IMDM medium (Viva cell) in an incubator (Thermo) at 37 °C with 5% CO2. In this experiment, NMT1 inhibitors were dissolved in DMSO to obtain 600 µM stock solutions. Dose-response solutions were prepared with a top endpoint compound concentration of 3 µM, followed by three-fold serial dilutions in DMSO, totaling eight data points. The final concentration of DMSO was 0.5%.
MV-4-11 cells were seeded into a white 96-well plate, 80 µL of cell suspension per well, containing 6000 MV-4-11 cells. The cell plate was placed in the CO2 incubator for overnight culture. Then, 20 µL of NMT1 inhibitor solutions at different concentrations were added to the wells. The 96-well plate was placed back into the incubator for three days. Another cell plate was prepared, and the signal was read on the day of drug addition to serve as the maximum value (Max value in the equation below) for data analysis. To this cell plate, 25 µL of cell viability chemiluminescence detection reagent was added per well, followed by incubation at room temperature for 10 minutes to stabilize the luminescence signal. A multi-label analyzer was used for reading.
The raw data were converted into inhibition rates using the equation (Sample - Min) / (Max - Min) * 100%. The IC50 values were then determined by fitting a four-parameter curve (using the "log(inhibitor) vs. response - Variable slope" model in GraphPad Prism). Min: wells treated with 0.5% DMSO; Max: Day 0 wells. Table 1 provides the inhibitory activity of the compounds of the invention on MV-4-11 cell proliferation. Table 1: Compound Inhibitory Activity against NMT1 Enzyme (IC50) and Anti-proliferative Activity against MV-4-11 Cells (IC50)

Cc1c(CCOc2ccc(F)cc2-c2ccn3ncc(CN(C)C)c3c2)c(C(=O)N(C)C)nn1C [Compound 6, 4-{2-[(2-{3-[(dimethylamino)methyl]pyrazolo[1,5-a]pyridin-5-yl}-4-fluorophenyl)oxy]ethyl}-1,5,N,N-tetrameth ylpyrazole-3-carboxamide]
IC50 [1]: 2.89 nM | IC50 [2]: 30.2 nM

CNCc1cnn2ccc(-c3ccc(F)c(F)c3OCCc3c(C(C)C)nn(C)c3C)cc12 [Compound 25, 5-[2-({2-[1,5-dimethyl-3-(prop-2-yl)pyrazol-4-yl]ethyl}oxy)-3,4-difluorophenyl]-3-[(methylamino)methyl]pyrazo lo[1,5-a]pyridine]
IC50 [1]: 3.26 nM | IC50 [2]: 25.8 nM

Cc1c(CCOc2cc(Cl)ccc2-c2ccn3ncc(CN(C)C)c3c2)c(CO)nn1C [Compound 12, (4-{2-[(5-chloro-2-{3-[(dimethylamino)methyl]-pyrazolo [1,5-a]pyridin-5-yl}phenyl)oxy]ethyl}-1,5-dimethylpyrazol-3-yl)methanol]
IC50 [1]: 3.67 nM | IC50 [2]: 31.7 nM

Cc1c(CCOc2c(F)cccc2-c2ccn3ncc(CN(C)C)c3c2)c(C(=O)N(C)C)nn1C [Compound 5, 4-{2-[(6-{3-[(dimethylamino)methyl]pyrazolo[1,5-a]pyridin-5-yl}-2-fluorophenyl)oxy]ethyl} -1 ,5,N,N-tetrameth ylpyrazole-3-carboxamide]
IC50 [1]: 1.74 nM | IC50 [2]: 11.8 nM

CNCc1cnn2ccc(-c3ccc(Cl)cc3OCCc3c(C(=O)N(C)C)nn(C)c3C)cc12 [Compound 2, 4-{2-[(5-chloro-2-{3-[(methylamino)methyl]pyrazolo[1,5-a]pyridin-5-yl}phenyl)oxy]ethyl}-1,5,N,N-tetramethyl pyrazole-3-carboxamide]
IC50 [1]: 2.13 nM | IC50 [2]: 23.4 nM

CNCc1cnn2ccc(-c3ccc(F)cc3OCCc3c(C(O)C(C)(C)C)nn(C)c3C)cc12 (centres unmarked) [Compound 34, 1-(4-{2-[(5-fluoro-2-{3-[(methylamino)methyl]pyrazolo[1,5-a]pyridin-5-yl}phenyl)oxy]ethyl}-1,5-dimethylpyrazol-3-yl)-2,2-dimethylpropan-1-ol]
IC50 [1]: 1.93 nM

Cc1nn(C)c(C)c1CCOc1cc(Cl)ccc1-c1ccn2ncc(CN(C)C)c2c1 [Compound 14, 5-(4-chloro-2-{[2-(1,3,5-trimethylpyrazol-4-yl)ethyl]oxy}phenyl)-3-[(dimethylamino)methyl]pyrazolo[1,5-a]pyridine]
IC50 [1]: 1.98 nM | IC50 [2]: 18.4 nM

CNC(=O)c1nn(C)c(C)c1CCOc1cc(Cl)ccc1-c1ccn2ncc(CN(C)C)c2c1 [Compound 17, 4-{2-[(5-chloro-2-{3-[(dimethylamino)methyl]pyrazolo[1,5-a]pyridin-5-yl}phenyl)oxy]ethyl}-1,5,N-trimethylp yrazole-3-carboxamide]
IC50 [1]: 2.38 nM | IC50 [2]: 25.8 nM

CNCc1cnn2ccc(-c3ccc(F)c(F)c3OCCc3c(C)nn(C)c3C)cc12 [Compound 23, 5-(3,4-difluoro-2-{[2-(1,3,5-trimethylpyrazol-4-yl)ethyl]oxy}phenyl)-3-[(methylamino)methyl]pyrazolo[1,5-a]py ridine]
IC50 [1]: 2.57 nM | IC50 [2]: 19.4 nM

Cc1c(CCOc2c(-c3ccn4ncc(CN(C)C)c4c3)ccc(Cl)c2Cl)c(C(=O)N(C)C)nn1C [Compound 9, 4-{2-[(2,3-dichloro-6-{3-[(dimethylamino)methyl]pyrazolo[1,5-a]pyridin-5-yl}phenyl)oxy]ethyl}-1,5,N,N-tetra methylpyrazole-3-carboxamide]
IC50 [1]: 3.68 nM | IC50 [2]: 32.5 nM

Cc1c(CCOc2c(-c3ccn4ncc(CN(C)C)c4c3)ccc(F)c2F)c(C(=O)N(C)C)nn1C [Compound 7, 4-{2-[(6-{3-[(dimethylamino)methyl]pyrazolo[1,5-a]pyridin-5-yl}-2,3-difluorophenyl)oxy]ethyl}-1,5,N,N-tetram ethylpyrazole-3-carboxamide]
IC50 [1]: 2.1 nM | IC50 [2]: 19.4 nM

CNCc1cnn2ccc(-c3ccc(F)c(F)c3OCCc3c(CC#N)nn(C)c3C)cc12 [Compound 28, (4-{2-[(2,3-difluoro-6-{3-[(methylam ino)methyl]pyrazolo[1,5-a]pyridin-5-yl}phenyl)oxy]ethyl}-1,5-dimethylpyrazol-3-yl)acetonitrile]
IC50 [1]: 1.95 nM | IC50 [2]: 10.7 nM

Cc1c(COc2cc(Cl)ccc2-c2ccn3ncc(CN(C)C)c3c2)c(C(=O)N(C)C)nn1C [Compound 11, 4-{[(5-chloro-2-{3-[(dimethylamino)methyl]pyrazolo[1,5-a]pyridin-5-yl}phenyl)oxy]methyl}-1,5,N,N-tetrameth ylpyrazole-3-carboxamide]
IC50 [1]: 6.31 nM | IC50 [2]: 58.7 nM

CNCc1cnn2ccc(-c3ccc(F)cc3OCCc3c(C(C)O)nn(C)c3C)cc12 (centres unmarked) [Compound 35, 1-(4-{2-[(5-fluoro-2-{3-[(methylamino)methyl]pyrazolo[1,5-a]pyridin-5-yl}phenyl)oxy]ethyl}-1,5-dimethylpyrazol-3-yl)ethan-1-ol]
IC50 [1]: 2.05 nM | IC50 [2]: 5.04 nM

CNCc1cnn2ccc(-c3ccc(F)c(F)c3OCCc3c(C(O)C(C)(C)C)nn(C)c3C)cc12 (centres unmarked) [Compound 30, 1-(4-{2-[(2,3-difluoro-6-{3-[(methylamino)methyl]-pyrazolo[1,5-a]pyridin-5-yl}phenyl)oxy]ethyl}-1,5-dimethylpyrazol-3-yl)-2,2-dimethylpr opan-1-ol]
IC50 [1]: 1.62 nM

CNCc1cnn2ccc(-c3ccc(F)c(F)c3OCCc3c(C(O)C(C)C)nn(C)c3C)cc12 (centres unmarked) [Compound 32, 1-(4-{2-[(2,3-difluoro-6-{3-[(methylamino)methyl]pyrazolo[1,5-a]pyridin-5-yl}phenyl)oxy]ethyl}-1,5-dimethylpyrazol-3-yl)-2-methylpropan-1-ol]
IC50 [1]: 1.71 nM

CNCc1cnn2ccc(-c3ccc(F)cc3OCCc3c(C(O)C(C)C)nn(C)c3C)cc12 (centres unmarked) [Compound 36, 1-(4-{2-[(5-fluoro-2-{3-[(methylamino)methyl]pyrazolo[1,5-a]pyridin-5-yl}phenyl)oxy]ethyl}-1,5-dimethylpyrazol-3-yl)-2-methylpropan-1-ol]
IC50 [1]: 1.96 nM

CNCc1cnn2ccc(-c3ccc(F)c(F)c3OCCc3c(C(C)O)nn(C)c3C)cc12 (centres unmarked) [Compound 31, 1-(4-{2-[(2,3-difluoro-6-{3-[(methylamino)methyl]-pyrazolo[1,5-a]pyridin-5-yl}phenyl)oxy]ethyl}-1,5-dimethylpyrazol-3-yl)ethan-1-ol]
IC50 [1]: 1.82 nM

CNCc1cnn2ccc(-c3ccc(F)c(F)c3OCCc3c(C(C)(C)O)nn(C)c3C)cc12 [Compound 29, 2-(4-{2-[(2,3-difluoro-6-{3-[(methylamino)methyl]-pyrazolo[1,5-a]pyridin-5-yl}phenyl)oxy]ethyl}-1,5-dimethylpyrazol-3-yl)propan-2-ol]
IC50 [1]: 1.7 nM
